What was measured:
[1] = target: T1, ABHD6 (Mus musculus, UniProt Q8R2Y0); experiment: In vitro competitive activity-based protein profiling, mouse brain proteome (ABHD6); type: biochemical; conditions: for % Inh ABHD6 Brain (Mouse, μM): concentration not given (μM)
T1 construct: Brain; from tissue; host or cells: mouse brain proteome
T1 sequence (Q8R2Y0 1-336): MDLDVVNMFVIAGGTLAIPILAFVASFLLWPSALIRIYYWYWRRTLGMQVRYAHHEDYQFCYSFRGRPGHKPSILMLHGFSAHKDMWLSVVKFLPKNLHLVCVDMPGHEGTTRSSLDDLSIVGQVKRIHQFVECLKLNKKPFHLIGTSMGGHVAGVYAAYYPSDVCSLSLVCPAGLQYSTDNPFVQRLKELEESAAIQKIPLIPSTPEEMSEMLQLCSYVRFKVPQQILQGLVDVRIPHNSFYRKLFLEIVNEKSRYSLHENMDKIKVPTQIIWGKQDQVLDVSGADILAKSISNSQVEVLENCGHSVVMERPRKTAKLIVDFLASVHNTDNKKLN
Procedure: [The source words this procedure for another target and reports this target under the same test.] In Vitro Competitive Activity-Based Protein Profiling.
Proteomes (human prefrontal cortex or cell membrane fractions) (50 μL, 1.0 mg/mL total protein concentration) were preincubated with varying concentrations of inhibitors at 37° C. After 30 min, FP-Rh or HT-01 (1.0 μL, 50 μM in DMSO) was added and the mixture was incubated for another 30 min at room temperature. Reactions were quenched with SDS loading buffer (15 μL-4×) and run on SDS-PAGE.

[2] = target: T2, MGLL (Mus musculus, UniProt O35678); experiment: In vitro competitive activity-based protein profiling, mouse brain proteome (MGLL); type: biochemical; set-up: IC50 MGLL Brain (Mouse, μM): scale not given here; conditions: for % Inh MGLL Brain (Mouse, μM): concentration not given (μM)
T2 construct: Brain; from tissue; host or cells: mouse brain proteome
T2 sequence (O35678 1-303): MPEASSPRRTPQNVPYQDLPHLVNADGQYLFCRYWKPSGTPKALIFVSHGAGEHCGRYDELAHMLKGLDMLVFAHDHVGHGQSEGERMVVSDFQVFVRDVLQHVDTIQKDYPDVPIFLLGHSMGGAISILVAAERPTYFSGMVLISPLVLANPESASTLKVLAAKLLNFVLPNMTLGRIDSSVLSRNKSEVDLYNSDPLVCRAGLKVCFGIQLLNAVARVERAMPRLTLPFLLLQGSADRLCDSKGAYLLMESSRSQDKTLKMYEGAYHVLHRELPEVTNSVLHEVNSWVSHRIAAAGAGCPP

Structure (SMILES)	% Inh ABHD6 Brain (Mouse, μM) ([1]; mouse brain proteome)	% Inh MGLL Brain (Mouse, μM) [2]	IC50 MGLL Brain (Mouse, μM) [2]	IC50 ([1]; mouse proteome) [nM]	inhibition at 10 µM ([1]; mouse brain proteome, at 10 uM, read-out: % Inh ABHD6 Brain (Mouse)) [%]	inhibition at 10 µM ([2]; at 10 uM, read-out: % Inh MGLL Brain (Mouse)) [%]
CC(=O)N1CC2(CCN(c3cc(Cl)ccc3CN3CCN(C(=O)OC(C(F)(F)F)C(F)(F)F)CC3)CC2)C1 [Example 213, 1,1,1,3,3,3-Hexafluoropropan-2-yl 4-(2-(2-acetyl-2,7-diazaspiro[3.5]nonan-7-yl)-4-chlorobenzyl)piperazine-1-carboxylate]	## (## is between 25 and 75%)	### (### is ≥75%)				
CC(=O)N1CC2CN(c3cc(Cl)ccc3CN3CCN(C(=O)OC(C(F)(F)F)C(F)(F)F)CC3)CC2C1 (stereo not drawn) [Example 202, 1,1,1,3,3,3-Hexafluoropropan-2-yl 4-(2-(5-acetylhexahydropyrrolo[3,4-c]pyrrol-2(lH)-yl)-4-chlorobenzyl)piperazine-1 - carboxylate]	## (## is between 25 and 75%)	### (### is ≥75%)				
O=C(OC(C(F)(F)F)C(F)(F)F)N1CCC2(CCN(Cc3ccc(Cl)cc3N3CCC(F)CC3)CC2)C1 [Example 28, 1,1,1,3,3,3-Hexafluoropropan-2-yl 8-(4-chloro-2-(4-fluoropiperidin-1-yl)benzyl)-2,8-diazaspiro[4.5]decane-2-carboxylate]	# (# is ≤25%)	### (### is ≥75%)	* * *			
CCN1CCC2(CC1)CCN(c1cc(Cl)cc(CN3CCCC34CN(C(=O)OC(C(F)(F)F)C(F)(F)F)C4)c1)C2 [Example 239, 1,1,1,3,3,3-Hexafluoropropan-2-yl 5-(3-chloro-5-(8-ethyl-2,8-diazaspiro[4.5]decan-2-yl)benzyl)-2,5-diazaspiro[3,4]octane-2-carboxylate]	## (## is between 25 and 75%)	## (## is between 25 and 75%)				
COc1ccccc1CN1CC2(CCN(C(=O)OC(C(F)(F)F)C(F)(F)F)CC2)C1 [Example 92, 1,1,1,3,3,3-Hexafluoropropan-2-yl 2-(2-methoxybenzyl)-2,7-diazaspiro[3.5]nonane-7-carboxylate]	### (### is ≥75%)	### (### is ≥75%)				
CS(=O)(=O)N1CCC2(CCN(c3cc(CN4CCCC45CN(C(=O)OC(C(F)(F)F)C(F)(F)F)C5)cc(C(F)(F)F)c3)CC2)C1 [Example 233, 1,1,1,3,3,3-Hexafluoropropan-2-yl 5-(3-(2-(methylsulfonyl)-2,8-diazaspiro[4.5]decan-8-yl)-5-(trifluoromethyl)benzyl)-2,5-diazaspiro[3.4]octane-2-carboxylate]	## (## is between 25 and 75%)	### (### is ≥75%)				
CS(=O)(=O)N1CC2(CCN(c3ccccc3CN3CCN(C(=O)OC(C(F)(F)F)C(F)(F)F)CC3)C2)C1 [Example 167, 1,1,1,3,3,3-Hexafluoropropan-2-yl 4-(2-(2-(methylsulfonyl)-2,6-diazaspiro[3,4]octan-6-yl)benzyl)piperazine-1-carboxylate]	# (# is ≤25%)	### (### is ≥75%)				
CC(=O)N1CC2(CCN(c3cc(C(F)(F)F)ccc3CN3CCN(C(=O)OC(C(F)(F)F)C(F)(F)F)CC3)C2)C1 [Example 180, 1,1,1,3,3,3-Hexafluoropropan-2-yl 4-(2-(2-acetyl-2,6-diazaspiro[3,4]octan-6-yl)-4-(trifluoromethyl)benzyl)pipera zine-1-carboxylate]	# (# is ≤25%)	### (### is ≥75%)				
O=C(OC(C(F)(F)F)C(F)(F)F)N1CC2(CCN(Cc3ccc(C(F)(F)F)cc3)CC2)C1 [Example 56, 1,1,1,3,3,3-Hexafluoropropan-2-yl 7-(4-(trifluoromethyl)benzyl)-2,7-diazaspiro[3.5]nonane-2-carboxylate]	### (### is ≥75%)	## (## is between 25 and 75%)				
CC(=O)N1CCC2(CC1)CCN(c1cc(C(F)(F)F)ccc1CN1CCN(C(=O)OC(C(F)(F)F)C(F)(F)F)CC1)C2 [Example 197, 1.1.1,3,3.3-Hexafluoropropan-2-yl 4-(2-(8-acetyl-2,8-diazaspiro[4.5]decan-2-yl)-4-(trifluoromethyl)benzyl)pipera zine-l-carboxylate]	# (# is ≤25%)	### (### is ≥75%)				
O=C(OC(C(F)(F)F)C(F)(F)F)N1CCC2(CCN(Cc3ccc(Cl)c(N4CCCC4)c3)CC2)C1 [Example 172, 1,1,1,3,3,3-Hexafluoropropan-2-yl 8-(4-chloro-3-(pynolidin-1-yl)benzyl)-2,8-diazaspiro[4.5]decane-2-carboxylate]					25 to 75	> 75
CC(=O)N1CC2(CCN(c3ccccc3CN3CCC34CCN(C(=O)OC(C(F)(F)F)C(F)(F)F)CC4)C2)C1 [Example 228, 1,1,1,3,3,3-Hexafluoropropan-2-yl 1-(2-(2-acetyl-2,6-diazaspiro[3,4]octan-6-yl)benzyl)-1,7-diazaspiro[3.5]nonane-7-carboxylate]	# (# is ≤25%)	### (### is ≥75%)				
CC(=O)N1CC2(CCN(c3ccccc3CN3CCN(C(=O)OC(C(F)(F)F)C(F)(F)F)CC3)C2)C1 [Example 168, 1,1,1,3,3,3-Hexafluoropropan-2-yl 4-(2-(2-acetyl-2,6-diazaspiro[3.4]octan-6-yl)benzyl)piperazine-1-carboxylate]	# (# is ≤25%)	### (### is ≥75%)				

Second part, the compound after the results:

% Inh ABHD6 Brain (Mouse, μM) ([1]; mouse brain proteome)	% Inh MGLL Brain (Mouse, μM) [2]	IC50 MGLL Brain (Mouse, μM) [2]	IC50 ([1]; mouse proteome) [nM]	inhibition at 10 µM ([1]; mouse brain proteome, at 10 uM, read-out: % Inh ABHD6 Brain (Mouse)) [%]	inhibition at 10 µM ([2]; at 10 uM, read-out: % Inh MGLL Brain (Mouse)) [%]	Structure (SMILES)
### (### is ≥75%)	### (### is ≥75%)					CS(=O)(=O)N1CC2(CCN(c3cc(C(F)(F)F)ccc3CN3CCN(C(=O)OC(C(F)(F)F)C(F)(F)F)CC3)CC2)C1 [Example 211, 1,1,1,3,3,3-Hexafluoropropan-2-yl 4-(2-(2-(methylsulfonyl)-2,7-diazaspiro[3.5]nonan-7-yl)-4-(trifluoiomethyl)benzyl) piperazine-1-carboxylate]
### (### is ≥75%)	### (### is ≥75%)					O=C(OC(C(F)(F)F)C(F)(F)F)N1CCC2(CC1)CN(Cc1c(Cl)cccc1N1CCC(F)CC1)C2 [Example 47, 1,1,1,3,3,3-Hexafluoropropan-2-yl 2-(2-chloro-6-(4-fluoropiperidin-1-yl)benzyl)-2,7-diazaspiro[3.5]nonane-7-carboxylate]
## (## is between 25 and 75%)	### (### is ≥75%)		100 to 1000			O=C(OC(C(F)(F)F)C(F)(F)F)N1CCC2(CC1)CN(Cc1c(N3CCCCC3)cccc1C(F)(F)F)C2 [Example 41, 1,1,1,3,3,3-Hexafluoropropan-2-yl 2-(2-(piperidin-1-yl)-6-(trifluoromethyl)benzyl)-2,7-diazaspiro[3.5]nonane-7-carboxylate]
### (### is ≥75%)	### (### is ≥75%)					O=C(OC(C(F)(F)F)C(F)(F)F)N1CCC2(CC1)CN(Cc1ccc(C(F)(F)F)cc1N1CCOCC1)C2 [Example 36, 1,1,1,3,3,3-Hexafluoropropan-2-yl 2-(2-morpholino-4-(trifluoromethyl)benzyl)-2,7-diazaspiro[3.5]nonane-7-carboxylate]
### (### is ≥75%)	### (### is ≥75%)					CS(=O)(=O)N1CCN(c2cccc(Cl)c2CN2CC3(CCN(C(=O)OC(C(F)(F)F)C(F)(F)F)CC3)C2)CC1 [Example 44, 1,1,1,3,3,3-Hexafluoropropan-2-yl 2-(2-chloro-6-(4-(methylsulfonyl)piperazin-1-yl)benzyl)-2,7-diazaspiro[3.5]nonane-7-carboxylate]
### (### is ≥75%)	### (### is ≥75%)					CS(=O)(=O)N1CCN(c2cccc(C(F)(F)F)c2CN2CC3(CCN(C(=O)OC(C(F)(F)F)C(F)(F)F)CC3)C2)CC1 [Example 53, 1,1,1,3,3,3-Hexafluoropropan-2-yl 2-(2-(4-(methylsulfonyl)piperazin-1-yl)-6-(trifluoromethyl)benzyl)-2,7-diazaspiro[3.5]nonane-7-carboxylate]
### (### is ≥75%)	### (### is ≥75%)					CS(=O)(=O)N1CCC2(CCN(c3cccc(Cl)c3CN3CC4(CCN(C(=O)OC(C(F)(F)F)C(F)(F)F)CC4)C3)CC2)C1 [Example 61, 1,1,1,3,3,3-Hexafluoropropan-2-yl 2-(2-chloro-6-(2-(methylsulfonyl)-2,8-diazaspiro[4.5]decan-8-yl)benzyl)-2,7-diazaspiro[3.5]nonane-7-carboxylate]

— patent US11161856B2 (H. Lundbeck A/S, priority 2017, dated 2021)
